The record followed here is PubChem BioAssay (NCI).

SMILES strings stand for the structures. Several values for one entry are separate records, joined by “and”; a condition that tells them apart may be missing. Equal entries are not always repeated.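 Growth conditions: 96-well plates. Treatment: test compound, 48 hours, 5 concentrations. Analysis: linear interpolation between bracketing concentrations; unreached endpoints set to highest concentration. GI50 marks 50% less growth. Definition used: TGI = concentration required for complete inhibition of growth.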

Among the test systems are HS 578T breast; SNB-75 CNS; A549 NSCLC; T-47D breast; MCF7 breast; SW-620 colon; SNB-19 CNS; SK-MEL-2 melanoma; HCT-15 colon; CCRF-CEM leukemia.
Holding throughout (test): inhibition of tumour cell growth, NCI panel, 48 h

Consider `CC1=C([Se]CC(OC(=O)[C@@H](CSSC(C)(C)C)NC(=O)C(C)(C)C)C(=O)NCCCCCC(=O)OCc2ccccc2)C(=O)c2ccccc2C1=O` (some centres undefined), for which the GI50 is 2.18 µM in the test on HS 578T breast; 1.37 µM with SNB-75 CNS; 2.11 µM in the test on A549 NSCLC; 2.19 µM with T-47D breast; 3.04 µM in the test with MCF7 breast; 2.31 µM in the test on SW-620 colon. Also, the GI50 in the test with SNB-19 CNS is 1.09 µM; in the test on SK-MEL-2 melanoma, 2.26 µM; in the test on HCT-15 colon it was 3.2 µM. Further, the TGI in the test on HS 578T breast worked out at 5.56 µM; in the test with SNB-75 CNS, 2.66 µM; in the test on A549 NSCLC, 5.42 µM; in the test on T-47D breast, 6.39 µM; in the test on MCF7 breast it was 9.74 µM; with SW-620 colon it was 5.2 µM. Besides, the TGI was determined as 2.56 µM in the test on SNB-19 CNS, 5.06 µM with SK-MEL-2 melanoma and 12.9 µM in the test with HCT-15 colon.

As to `O=C(CC1(O)C(=O)Nc2ccccc21)c1ccc(O)cc1O` (centres undefined), the TGI in the test with SNB-75 CNS, in the test on A549 NSCLC, in the test on SW-620 colon, in the test with SNB-19 CNS, in the test on SK-MEL-2 melanoma and in the test on HCT-15 colon was over 100 µM each time.

As to `CC(=O)[CH-]C(C)=O.CC(=O)[CH-]C(C)=O.CC(=O)[CH-]C(C)=O.[Cl-].[Hf+4]`, the GI50 in the test with A549 NSCLC, with CCRF-CEM leukemia, in the test with SW-620 colon, in the test on SNB-19 CNS, in the test with SK-MEL-2 melanoma and in the test on HCT-15 colon was over 100 µM in each case. In addition, the TGI in the test on A549 NSCLC, in the test on CCRF-CEM leukemia, with SW-620 colon, with SNB-19 CNS, with SK-MEL-2 melanoma and in the test on HCT-15 colon was over 100 µM in each case.

Consider `COc1ccc(C2c3cc4c(cc3OC(O)(CO)C2C(=O)O)OCO4)c(OC)c1OC` (centres undefined) (tested in a mixture with another compound), for which the TGI in the test on SNB-75 CNS, in the test with A549 NSCLC, in the test with CCRF-CEM leukemia, in the test on SW-620 colon, with SNB-19 CNS and in the test with SK-MEL-2 melanoma was over 100 µM each time. This molecule also yielded a TGI with HCT-15 colon of over 100 µM.

Take `Cc1cc2c(cc1C)[n+](=O)c(C(=O)c1cccs1)c(C(F)(F)F)n2[O-]`: the GI50 with SNB-75 CNS was 1.02 µM; in the test with A549 NSCLC, 3.27 µM and 5.68 µM; in the test with T-47D breast, 7.74 µM and 4.47 µM; in the test on MCF7 breast, 2.31 µM; in the test on SW-620 colon, 2.48 µM and 11.5 µM; in the test with SNB-19 CNS, 4.61 µM and 7.76 µM. For the same molecule, the GI50 in the test with SK-MEL-2 melanoma is 15.8 µM and 8.02 µM; in the test with HCT-15 colon it was 5.27 µM and 3.56 µM. In addition, the TGI in the test with SNB-75 CNS is 18.7 µM; in the test with A549 NSCLC, 50 µM and 21.5 µM; in the test with T-47D breast, 50 µM and 29.8 µM; in the test with MCF7 breast, 12.6 µM; with SW-620 colon, 50 µM and 50.6 µM; in the test on SNB-19 CNS, 50 µM and 52 µM. Moreover, the TGI in the test on SK-MEL-2 melanoma was 50 µM and 26.3 µM; with HCT-15 colon, 26 µM and 56 µM.

As to `CCN(CC)CCCN1C(=O)c2c(c(C)c3c(oc4cc(O)ccc43)c2C)C1=O`, the GI50 in the test with SNB-75 CNS was 1.52 µM; in the test on A549 NSCLC, 1.85 µM; in the test on T-47D breast, 1.85 µM; in the test with CCRF-CEM leukemia, 0.359 µM; with SW-620 colon it was 1.73 µM; in the test with SNB-19 CNS, 1.75 µM. In addition, the GI50 was 15.7 µM in the test on SK-MEL-2 melanoma and 1.77 µM in the test on HCT-15 colon. In addition, the TGI with SNB-75 CNS worked out at 2.91 µM; with A549 NSCLC, 3.54 µM; in the test with T-47D breast it was 3.8 µM; in the test with CCRF-CEM leukemia, 1.76 µM; in the test on SW-620 colon it was 3.25 µM; in the test on SNB-19 CNS, 3.35 µM. Further, the values for the TGI in the test on SK-MEL-2 melanoma and in the test with HCT-15 colon were 32.6 µM and 3.39 µM, respectively.

Consider `O=C(O/N=C1/CCC/C1=C\c1ccccc1)c1ccccc1`, for which the TGI with SNB-75 CNS, with A549 NSCLC, in the test with CCRF-CEM leukemia, in the test on SW-620 colon, in the test with SK-MEL-2 melanoma and in the test with HCT-15 colon was over 100 µM each time.

On to `COc1ccc(C(=O)O)c2c(=O)c3ccccc3[nH]c12`, for which the TGI with A549 NSCLC is over 100 µM; in the test on CCRF-CEM leukemia, over 31.6 µM; with SW-620 colon it was over 100 µM; in the test with SNB-19 CNS, over 100 µM; with SK-MEL-2 melanoma, over 100 µM; with HCT-15 colon, over 100 µM.

With `Cn1cc(C(=O)/C(Cl)=C(\Cl)C(=O)O)c2ccccc21`, the TGI in the test with SNB-75 CNS, in the test with A549 NSCLC, in the test on CCRF-CEM leukemia, in the test on SW-620 colon, in the test on SK-MEL-2 melanoma and with HCT-15 colon was over 100 µM in each case.

Take `CO/C=C/c1cc2c(cc1C(OC)OC)OCO2`: the TGI in the test with SNB-75 CNS is 36.8 µM; in the test on A549 NSCLC it was over 100 µM; in the test with CCRF-CEM leukemia, over 100 µM; in the test with SW-620 colon it was over 100 µM; with SNB-19 CNS, over 100 µM; in the test with SK-MEL-2 melanoma it was over 100 µM.

Turning to `O=C1OC(c2ccccc2)(c2ccccc2)CC1CN1CCOCC1` (centres undefined), the TGI in the test with SNB-75 CNS is 49.1 µM; in the test on A549 NSCLC, 24.5 µM; in the test with CCRF-CEM leukemia, 9.44 µM; with SW-620 colon, 18 µM; with SNB-19 CNS it was over 100 µM; in the test on SK-MEL-2 melanoma, 36.5 µM. The TGI with HCT-15 colon came to 29.6 µM.

Turning to `N=c1oc2cc(O)c(O)cc2cc1C(N)=O`, the TGI in the test with SNB-75 CNS was 96.3 µM; with A549 NSCLC, over 100 µM; in the test with CCRF-CEM leukemia, over 100 µM; in the test on SW-620 colon, over 100 µM; with SNB-19 CNS, over 100 µM; in the test with SK-MEL-2 melanoma, over 100 µM. Further, the TGI with HCT-15 colon is over 100 µM.

As for `CCC[CH2][Sn]([CH2]CCC)([O]C(=O)c1cccc(F)c1F)[O][Sn]([CH2]CCC)([CH2]CCC)[O]C(=O)c1cccc(F)c1F`, the GI50 is 0.317 µM in the test on SNB-75 CNS; 1.78 µM in the test on A549 NSCLC; 0.0189 µM in the test on T-47D breast; 0.0463 µM in the test on MCF7 breast; 0.103 µM in the test on SW-620 colon; 0.573 µM with SNB-19 CNS. The GI50 with SK-MEL-2 melanoma was 0.166 µM; in the test with HCT-15 colon, 0.243 µM. Also, the TGI in the test on SNB-75 CNS was found to be 1.52 µM; in the test with A549 NSCLC it was 3.44 µM; with T-47D breast, 0.186 µM; in the test on MCF7 breast, 0.2 µM; in the test with SW-620 colon it was 0.239 µM; in the test on SNB-19 CNS, 1.7 µM. The figures for the TGI with SK-MEL-2 melanoma and with HCT-15 colon were 0.447 µM and 0.797 µM, respectively.
